Consider 14 compounds from US7786308B2 (priority 2005, dated 2010).

Like-named read-outs stand apart in the source and are kept apart here. Bounds are passed on as bounds.

Experiment in all cases: cell-based
The target in one assay is T1, M3 muscarinic receptor (Homo sapiens, UniProt P20309).
T1 construct: expressed in transfected cells; host or cells: CHO (M3-CHO)
Particulars: for Emax: read-out: M3 Efficacy.

In the next assay the target is T2, M1 muscarinic receptor (Homo sapiens, UniProt P11229).
T2 construct: expressed in transfected cells; host or cells: CHO (M1-CHO)
T2 sequence (P11229 1-460): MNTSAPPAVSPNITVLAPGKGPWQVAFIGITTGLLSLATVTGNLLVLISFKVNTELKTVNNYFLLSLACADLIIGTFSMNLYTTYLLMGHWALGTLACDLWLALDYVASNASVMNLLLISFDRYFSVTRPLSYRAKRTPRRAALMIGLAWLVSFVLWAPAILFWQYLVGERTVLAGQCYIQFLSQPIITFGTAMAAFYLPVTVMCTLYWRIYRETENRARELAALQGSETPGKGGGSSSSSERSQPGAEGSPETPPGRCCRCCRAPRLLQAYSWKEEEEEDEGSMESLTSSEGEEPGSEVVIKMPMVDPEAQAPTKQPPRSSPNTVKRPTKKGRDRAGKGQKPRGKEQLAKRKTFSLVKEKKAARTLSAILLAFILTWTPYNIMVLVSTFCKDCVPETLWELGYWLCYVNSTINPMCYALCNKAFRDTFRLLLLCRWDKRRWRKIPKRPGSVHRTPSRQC
The note with it: for Emax: read-out: M1 Efficacy.

For a further assay, the target named is T3, M4 muscarinic receptor (Homo sapiens, UniProt P08173).
T3 construct: expressed in transfected cells; host or cells: CHO (M4-CHO)
T3 sequence (P08173 1-479): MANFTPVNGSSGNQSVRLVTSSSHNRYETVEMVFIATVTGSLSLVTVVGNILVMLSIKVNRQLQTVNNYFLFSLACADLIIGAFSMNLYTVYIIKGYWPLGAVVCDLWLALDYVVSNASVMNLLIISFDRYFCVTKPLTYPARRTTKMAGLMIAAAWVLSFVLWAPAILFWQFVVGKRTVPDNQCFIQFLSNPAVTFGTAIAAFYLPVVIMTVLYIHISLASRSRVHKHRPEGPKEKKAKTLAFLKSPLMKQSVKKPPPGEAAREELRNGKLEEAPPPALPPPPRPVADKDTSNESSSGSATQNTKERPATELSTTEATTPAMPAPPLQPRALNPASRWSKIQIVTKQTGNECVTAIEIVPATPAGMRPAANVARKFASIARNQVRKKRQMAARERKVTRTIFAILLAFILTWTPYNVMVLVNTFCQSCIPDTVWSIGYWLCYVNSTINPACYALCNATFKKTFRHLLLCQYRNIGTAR
Particulars: for Emax: read-out: M4 Efficacy.

A further assay has as its target T4, M2 muscarinic receptor (Homo sapiens, UniProt P08172).
T4 construct: expressed in transfected cells; host or cells: CHO (M2-CHO)
T4 sequence (P08172 1-466): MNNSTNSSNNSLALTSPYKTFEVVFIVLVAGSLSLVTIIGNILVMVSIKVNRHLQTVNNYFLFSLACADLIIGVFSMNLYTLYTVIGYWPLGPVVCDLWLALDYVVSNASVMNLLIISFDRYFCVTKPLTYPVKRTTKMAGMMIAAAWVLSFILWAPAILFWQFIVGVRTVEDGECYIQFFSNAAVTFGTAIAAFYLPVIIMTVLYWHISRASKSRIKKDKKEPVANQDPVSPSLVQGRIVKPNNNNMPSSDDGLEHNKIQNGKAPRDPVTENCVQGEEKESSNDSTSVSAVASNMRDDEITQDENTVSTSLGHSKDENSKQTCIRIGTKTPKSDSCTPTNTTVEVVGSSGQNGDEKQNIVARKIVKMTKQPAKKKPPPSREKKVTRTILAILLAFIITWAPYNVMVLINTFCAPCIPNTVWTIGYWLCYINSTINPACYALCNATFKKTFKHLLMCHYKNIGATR
Particulars: for Emax: read-out: M2 Efficacy.

T1 sequence (P20309 whole entry): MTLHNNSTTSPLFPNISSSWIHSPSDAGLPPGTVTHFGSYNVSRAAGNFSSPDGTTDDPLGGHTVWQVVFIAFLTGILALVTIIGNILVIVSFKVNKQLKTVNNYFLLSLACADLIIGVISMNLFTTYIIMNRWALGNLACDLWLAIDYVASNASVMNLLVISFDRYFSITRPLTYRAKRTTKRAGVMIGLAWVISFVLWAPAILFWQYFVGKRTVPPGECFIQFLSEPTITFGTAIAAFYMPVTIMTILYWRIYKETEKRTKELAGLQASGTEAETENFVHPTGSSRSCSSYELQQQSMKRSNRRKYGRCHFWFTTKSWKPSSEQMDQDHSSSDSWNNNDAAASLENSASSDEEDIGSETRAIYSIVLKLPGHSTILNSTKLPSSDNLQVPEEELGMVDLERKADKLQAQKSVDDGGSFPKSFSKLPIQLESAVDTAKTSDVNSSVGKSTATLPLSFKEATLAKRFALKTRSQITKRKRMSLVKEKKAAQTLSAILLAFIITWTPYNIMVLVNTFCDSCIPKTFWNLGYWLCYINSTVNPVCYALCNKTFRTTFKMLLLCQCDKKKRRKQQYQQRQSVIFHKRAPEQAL

On to `CCOC(=O)N1C2CCC1CC(N1CCC(N(C)c3ccc(F)cc3)CC1)C2` (stereo not drawn) [Compound 9], for which the EC50 on M3 muscarinic receptor, on M1 muscarinic receptor, on M4 muscarinic receptor and on M2 muscarinic receptor was greater than 5 µM in each case. Moreover, the Emax on M3 muscarinic receptor was less than 25%; at M1 muscarinic receptor it was 25 to 100%; on M4 muscarinic receptor, 25 to 100%; on M2 muscarinic receptor, less than 25%.
In the case of `CCOC(=O)N1C2CCC1CC(N1CCC(N(C(C)=O)C3CCCC3)CC1)C2` (stereo not drawn) [Compound 15], the EC50 at M3 muscarinic receptor was 2 to 5 µM; at M1 muscarinic receptor, less than 2 µM; on M4 muscarinic receptor it was less than 2 µM; on M2 muscarinic receptor it was less than 2 µM. Moreover, the Emax at M3 muscarinic receptor, on M1 muscarinic receptor, on M4 muscarinic receptor and at M2 muscarinic receptor was 25 to 100% in each case.
For `CCCN(C1CCN(C2CC3CCC(C2)N3C(=O)OCC)CC1)S(=O)(=O)c1ccc(C(F)(F)F)cc1` (stereo not drawn) [Compound 19], the EC50 at M3 muscarinic receptor, on M1 muscarinic receptor, on M4 muscarinic receptor and at M2 muscarinic receptor was greater than 5 µM each time. Besides, the Emax at M3 muscarinic receptor, on M1 muscarinic receptor, at M4 muscarinic receptor and at M2 muscarinic receptor was less than 25% throughout.
For `CCOC(=O)N1C2CCC1CC(N1CCC(N(CC(=O)CC)c3ccc(F)cc3)CC1)C2` (stereo not drawn) [Compound 20], the EC50 is greater than 5 µM on M3 muscarinic receptor, less than 2 µM at M1 muscarinic receptor, greater than 5 µM on M4 muscarinic receptor and greater than 5 µM at M2 muscarinic receptor. Also, the Emax on M3 muscarinic receptor was less than 25%; at M1 muscarinic receptor it was 25 to 100%; at M4 muscarinic receptor it was less than 25%; on M2 muscarinic receptor, less than 25%.
With `CCOC(=O)N1C2CCC1CC(N1CCC(N(CC(=O)CC)c3ccc(F)cc3)CC1)C2` (stereo not drawn) [Compound 25], the EC50 at M3 muscarinic receptor (read-out: M3 Activity) is greater than 5 µM; at M1 muscarinic receptor (read-out: M1 Activity) it was less than 2 µM; at M4 muscarinic receptor (read-out: M4 Activity), greater than 5 µM; at M2 muscarinic receptor (read-out: M2 Activity), greater than 5 µM.
For the compound `CCOC(=O)N1C2CCC1CC(N1CCC(N(C)c3ccccc3)CC1)C2` (stereo not drawn) [Compound 27], the EC50 is greater than 5 µM on M3 muscarinic receptor, less than 2 µM on M1 muscarinic receptor, greater than 5 µM on M4 muscarinic receptor and greater than 5 µM at M2 muscarinic receptor. Further, the Emax is less than 25% at M3 muscarinic receptor, 25 to 100% at M1 muscarinic receptor, less than 25% on M4 muscarinic receptor and less than 25% at M2 muscarinic receptor.
As to `CCOC(=O)N1C2CCC1CC(N1CCC(N(CC(C)C)S(=O)(=O)c3ccc(C(F)(F)F)cc3)CC1)C2` (stereo not drawn) [Compound 28], the EC50 at M3 muscarinic receptor, on M1 muscarinic receptor, on M4 muscarinic receptor and at M2 muscarinic receptor was greater than 5 µM each time. For the same compound, the Emax on M3 muscarinic receptor, at M1 muscarinic receptor, on M4 muscarinic receptor and at M2 muscarinic receptor was less than 25% in each case.
As to `CCOC(=O)N1C2CCC1CC(N1CCC(N(Cc3ccccc3)C(C)=O)CC1)C2` (stereo not drawn) [Compound 35], the EC50 on M3 muscarinic receptor was greater than 5 µM; on M1 muscarinic receptor, less than 2 µM; at M4 muscarinic receptor it was 2 to 5 µM; on M2 muscarinic receptor it was greater than 5 µM. The Emax at M3 muscarinic receptor, on M1 muscarinic receptor, on M4 muscarinic receptor and on M2 muscarinic receptor was 25 to 100% throughout.
For the compound `CCOC(=O)N1C2CCC1CC(N1CCC(N(CC)c3ccccc3)CC1)C2` (stereo not drawn) [Compound 37, 3-[4-(ethyl-phenyl-amino)-piperidin-1-yl]-8-azabicyclo[3.2.1]octane-8-carboxylic acid ethyl ester], the EC50 at M3 muscarinic receptor was greater than 5 µM; on M1 muscarinic receptor it was less than 2 µM; at M4 muscarinic receptor, less than 2 µM; on M2 muscarinic receptor, greater than 5 µM. The Emax is less than 25% at M3 muscarinic receptor, 25 to 100% at M1 muscarinic receptor, less than 25% on M4 muscarinic receptor and less than 25% on M2 muscarinic receptor.
For `CCOC(=O)N1C2CCC1CC(N1CCC(N(C(C)=O)C(C)C)CC1)C2` (stereo not drawn) [Compound 60], the EC50 was greater than 5 µM at M3 muscarinic receptor, 2 to 5 µM on M1 muscarinic receptor, greater than 5 µM at M4 muscarinic receptor and greater than 5 µM at M2 muscarinic receptor. Besides, the Emax on M3 muscarinic receptor is less than 25%; on M1 muscarinic receptor, 25 to 100%; on M4 muscarinic receptor it was less than 25%; at M2 muscarinic receptor, less than 25%.
`CCOC(=O)N1C2CCC1CC(N1CCC(N(C(C)=O)C3CCCCC3)CC1)C2` (stereo not drawn) [Compound 63]: the EC50 on M3 muscarinic receptor is 2 to 5 µM; on M1 muscarinic receptor it was less than 2 µM; on M4 muscarinic receptor it was less than 2 µM; on M2 muscarinic receptor it was 2 to 5 µM. Further, the Emax at M3 muscarinic receptor was 25 to 100%; at M1 muscarinic receptor it was 25 to 100%; on M4 muscarinic receptor, 25 to 100%; at M2 muscarinic receptor, less than 25%.
In the case of `CCOC(=O)N1C2CCC1CC(N1CCC(Nc3ccc(F)cc3)CC1)C2` (stereo not drawn) [Compound 64, 3-[4-(4-Fluoro-phenylamino)-piperidin-1-yl]-8-aza-bicyclo[3.2.1]octane-8-carboxylic acid ethyl ester], the EC50 was greater than 5 µM at M3 muscarinic receptor, 2 to 5 µM on M1 muscarinic receptor, greater than 5 µM at M4 muscarinic receptor and greater than 5 µM on M2 muscarinic receptor. The Emax at M3 muscarinic receptor is less than 25%; at M1 muscarinic receptor it was 25 to 100%; on M4 muscarinic receptor, less than 25%; on M2 muscarinic receptor, less than 25%.
For `CCOC(=O)N1C2CCC1CC(N1CCC(N(c3ccc(F)cc3)S(C)(=O)=O)CC1)C2` (stereo not drawn) [Compound 71, 3-{4-[(4-Fluoro-phenyl)-methanesulfonyl-amino]-piperidin-1-yl}-8-aza-bicyclo[3.2.1]octane-8-carboxylic acid ethyl ester], the EC50 at M3 muscarinic receptor is greater than 5 µM; at M1 muscarinic receptor it was less than 2 µM; at M4 muscarinic receptor, 2 to 5 µM; at M2 muscarinic receptor, greater than 5 µM. The Emax at M3 muscarinic receptor is 25 to 100%; on M1 muscarinic receptor, 25 to 100%; at M4 muscarinic receptor, 25 to 100%; on M2 muscarinic receptor it was less than 25%.
With `CCOC(=O)N1C2CCC1CC(N1CCC3(CCC(=O)N3c3ccccc3)CC1)C2` (stereo not drawn) [Compound 88, Ethyl 3-(2-oxo-1-phenyl-1,8-diazaspiro[4.5]decan-8-yl)-8-azabicyclo[3.2.1]octane-8-carboxylate], at M3 muscarinic receptor, the EC50 is greater than 5 µM and the “M3 Efficacy” value is given as “+ (key: +++: efficacy was calculated to be greater than 100%; ++: efficacy was calculated to be from 100% to 25%; +: efficacy was calculated to be less than 25%; −: no data was available)”. Moreover, on M1 muscarinic receptor, the EC50 is less than 2 µM and the “M1 Efficacy” value was “++ (key: +++: efficacy was calculated to be greater than 100%; ++: efficacy was calculated to be from 100% to 25%; +: efficacy was calculated to be less than 25%; −: no data was available)”. For the same compound, at M4 muscarinic receptor, the EC50 is less than 2 µM and the “M4 Efficacy” value is on record as “++ (key: +++: efficacy was calculated to be greater than 100%; ++: efficacy was calculated to be from 100% to 25%; +: efficacy was calculated to be less than 25%; −: no data was available)”. Further, at M2 muscarinic receptor, the EC50 was less than 2 µM and the “M2 Efficacy” value is reported as “++ (key: +++: efficacy was calculated to be greater than 100%; ++: efficacy was calculated to be from 100% to 25%; +: efficacy was calculated to be less than 25%; −: no data was available)”.
